Laboratory results taken from US20250388535A1, “SULFONATED AND SULFATED ARYL-ALKYL COMPOUNDS USEFUL AS SURFACTANTS” (SPECIALTY OPERATIONS FRANCE, priority 2022, published 2025).

Test: Surface activity: critical micelle concentration and surface tension by force tensiometer
Assay type: physicochemical
Details: for CMC / Surface tension (at CMC): aqueous solution, room temperature; for Cross-sectional area: area occupied by the surfactant molecule at the surface; for Cross-sectional area / Surface excess: from Gibbs adsorption equation
Protocol: Critical micelle concentrations (CMC) and surface tensions (ST) were measured for aqueous solutions of the surfactants of the present invention at room temperature using a force tensiometer (Sigma 700/701). Plots of surface tension against surfactant concentration were drawn allowing to determine CMC and surface tension at the CMC. Using the Gibbs adsorption equation it is possible to determine the surface excess as well as the area occupied by the surfactant molecule at the surface (as a reference see for example “Industrial Utilization of Surfactants: principles and practice”, M. J. Rosen and M. Dahanayake, 2000, ISBN 1893997111) which are important parameters to characterize a surfactant.

| Compound | CMC [mM] | Surface tension (at CMC) [mN/m] | Cross-sectional area [nm^2] | Surface excess [mmol/m^2] |
| --- | --- | --- | --- | --- |
| CCCCCCCCCCCCCCC(C(=O)c1ccccc1)S(=O)(=O)[O-].[Na+] (centres unmarked) [PAKS-C16] | 0.23 | 44 | 0.64 | 0.0026 |
| CCCCCCCCCCCCCCC(C(O)c1ccccc1)S(=O)(=O)[O-].[Na+] (centres unmarked) [PAS-C16] | 0.22 | 36 | 0.53 | 0.0031 |
